Results: patent publication US8709406B2, “Prevention and treatment of oxidative stress disorders by gluthathione and phase II detoxification enzymes” (Brassica Foundation for ChemoProtection Research, priority 2001, dated 2014)

How the values were obtained:
[1] = test system: glucose 6-phosphate dehydrogenase; conditions: ARPE-19; sulforaphane 0.625 and 2.5 μM 24 h, then medium without inducer
Experimental: (§1) Cells were lysed by addition of a digitonin solution (0.8 mg/ml digitonin in 2 mM EDTA, pH 7.8), incubated at 37° C. for 20 min, gently shaken for 20 min at 25° C., and centrifuged at 1,500×g for 20 min at 4° C.
(§2) All measurements were made in 96-well microtiter plates at 25° C., and reaction rates were monitored with a microtiter plate reader. The QR activities of supernatant fractions were determined by procedures developed in our laboratory (Fahey, J. W., Zhang, Y. & Talalay, P. (1997) Proc. Natl. Acad. Sci. USA 94, 10367-10372; Prochaska, H. J., Santamaria, A. B. & Talalay, P. (1992) Proc. Natl. Acad. Sci. USA 89, 2394-2398.). Specific activities were obtained by relating the reaction rates to protein concentrations determined with the bicinchoninic acid reagent (Smith, P. K., Krohn, R. I., Hermanson, G. T., Mallia, A. K., Gratner, F. H., Provenzano, M. D., Fujimoto, E. K., Goeke, N. M., Olson, B. J. & Klenk, D. C. (1985) Anal. Biochem. 150, 76-85). […] Glutathione reductase activity was assayed by mixing 50 μl of cell lysate with 25 μl of 1 mM NADPH, 25 μl of GSSG (20 mg/ml), and 150 μl of 50 mM sodium phosphate, pH 7.5. Initial reaction rates were obtained at 340 nm (Carlberg, I. & Mannervik, B. (1985) Methods Enzymol. 113, 484-490).

[2] = test system: glutathione reductase; conditions: ARPE-19; sulforaphane 0.625 and 2.5 μM 24 h, then medium without inducer
Experimental: as §1, §2

[3] = test system: L1210 cells; assay: Menadione cytotoxicity (MTT, median effect analysis) and protection by sulforaphane; format: cell-based, mouse; conditions: menadione 2 h
Experimental: Mouse L1210 leukemia cells, a gift from Dr. Joseph G. Cory, East Carolina State University, Greenville, N.C., were grown in RPMI 1640 medium supplemented with 10% horse serum. All cultures were incubated in a humidified atmosphere of 5% CO2 at 37° C. Media and sera were obtained from Life Technologies (Rockville, Md.).
All experiments were performed in 96-well microliter plates. ARPE-19 and HaCaT cells were seeded at 10,000 cells per well and grown for 24 h before addition of sulforaphane, whereas L1210 cells (5,000 cells/well) were not incubated before sulforaphane treatment. Solutions of sulforaphane (5 mM) in dimethyl sulfoxide were diluted with the cognate culture medium to provide final inducer concentrations of 0.16-5.0 μM. The final DMSO concentrations were 0.1% by volume.
Cell viability was determined by spectroscopic measurement of the reduction of MTT (Carmichael, J., DeGraff, W. G., Gazdar, A. F., Minna, J. D. & Mitchell, J. B. (1987) Cancer Res. 47, 936-942). The culture media were discarded after the designated incubation periods, the cells were washed three times with PBS by use of a microtiter plate washer (Ultrawash Plus, Dynex Technologies, Chantilly, Va.). Each well then received 150 μl of an MTT solution (0.5 mg/ml) in serum-free medium. The plates were incubated for 2 h at 37° C., the MTT solution was discarded, 100 μl of DMSO were added to each well, and the plates were shaken at 200 rpm on an orbital shaker for 5 min. The absorbances of the wells were determined at 555 nm with a microtiter plate reader (Spectra Max Plus, Molecular Devices, Sunnyvale, Calif.). The absorbance of reduced MIT was then compared at each inducer and oxidant concentration to that of untreated control cells that received only the vehicle in which sulforaphane (DMSO) and menadione (DMSO or PBS) were dissolved. In each experiment three identical 96-well plates were used and the means of the absorbance values, the standard deviations of these means, and their coefficients of variation were calculated.
Dose-effect analyses were performed according to the Median Effect Equation, by use of a computer program (Chou, T. C. & Hayball, M. (1996) CalcuSyn for Windows 3.1 and 95: multiple dose effect analyzer and manual for IBM-PC, Biosoft, Cambridge, U.K). The equation: fa/fu=[D/Dm]^m, where fa is the fraction of cells affected by the oxidant, fu is the fraction unaffected (i.e., 1-fa), D is the dose of oxidant required to produce the effect fa, Dm is the concentration of oxidant required to produce a 50% effect, i.e., when fa=fu, and the slope m is a measure of the sigmoidicity of the dose-response curve, and is therefore a measure of cooperativity. The results are analyzed by plotting log(fa/fu) with respect to log D of the oxidant. The computer program provides the slope (m) of the curves, and the goodness of fit (r^2) to linearity.

[4] = after sulforaphane 0.16 μM 24 h
[5] = after sulforaphane 0.31 μM 24 h
[6] = after sulforaphane 0.63 μM 24 h

## C[S+]([O-])CCCCN=C=S (centres unmarked) [Sulforaphane]
[1]
  specific activity of glucose 6-phosphate dehydrogenase after removal of sulforaphane: continued to rise for 48 h after removal of sulforaphane
[2]
  specific activity of glutathione reductase after removal of sulforaphane: continued to rise for 48 h after removal of sulforaphane
[3]; [4]
  Dm (median effect concentration) of menadione: 19.6 µM
  m (slope of median effect plot) for menadione: 0.864
[3]; [5]
  Dm (median effect concentration) of menadione: 26.5 µM
  m (slope of median effect plot) for menadione: 1.00
[3]; [6]
  Dm (median effect concentration) of menadione: 36.2 µM
  m (slope of median effect plot) for menadione: 1.17
